Reference: patent US20050112573A1, “Method of detecting toxic substance” (priority 2001, published 2005)

System: yeast genes (level of expressed mRNA)
Assay: DNA chip analysis of expressed mRNA of yeast genes after 2 h culture with a toxic chemical substance
Format: cell-based, Saccharomyces cerevisiae S288C
Details: for The level of expressed mRNA in the presence of chemical substance/ (ratio to absence of chemical substance): stress protein genes, DNA chip
Description: Yeast (Saccharomyces cerevtisiae S288C (α SUC2mal mel gap2 CUP1)) were cultured at 25° C. on YPD medium (yeast extract 1%, polypepton 2%, glucose 2%). One of toxic chemical substances was added to the cell at logarithmic growth phase, and the cell was further cultured for two hours. Cell was cultured without any chemical substance in the same condition, and was used as control. Concentrations of the chemical substances were defined to inhibit the growth of the yeast but not lead to death.
After the completion of cultivation, the culture was centrifuged to collect the cells. To the cells, sodium acetate buffer (50 mM sodium acetate, 10 mM EDTA, 1% SDS) was added, and the mixture was shaken at 65° C. for five minutes, followed by returning to room temperature, and obtaining the supernatant, which procedure was repeated two times. To the supernatant, ½ amount of a solution of phenol/chloroform was added, and the mixture was centrifuged to give a supernatant, which was added with an equal amount of chloroform, and the mixture was centrifuged to give a supernatant. To the supernatant, an equal amount of isopropanol containing 0.3 M sodium acetate was added, and the mixture was allowed to stand at room temperature for 30 minutes, after which the mixture was centrifuged to give a sediment of the whole RNAs. Seventy % ethanol was added to the sediment, and the mixture was again centrifuged to give a sediment, which was then dried and dissolved in water. mRNA was isolated from the whole RNAs as followings. In view of the fact that a poly A chain is attached to the 3′ terminus of mRNA, a polynucleotide having a poly T structure which was immobilized on the surface of latex beads was used to trap the mRNA, and then the mRNA was washed and eluted with spine column (Oligotex-dT30<Super>mRNA Purification Kit, Takara). Reverse transcription of the mRNA was conducted with a reverse transcriptase (Super Script II Reverse Transcriptase; catalogue No. 18064-014, GibcoBRL) using fluorescence-labeled nucleotides to give cDNAs that were introduced with Cy3-dUTP or Cy5-dUTP during the reverse transcription.
The labeled cDNAs were dissolved in TE buffer (10 mM Tris-HCl/1 mM EDTA, pH8.0), and the solution was dropped on the DNA chip containing the whole genes of yeast (DNA Chip Research Inc. Japan) so that the cDNAs were hybridized on the DNA chip at 65° C. for over 12 hours. The fluoresces intensity of the DNA chip was read with a scanner, and the ratio relative to the fluorescence intensity resulting from the absence of chemical substance was estimated as the following, which is shown in Tables 1 to 9: [formula]
In the Tables, “Intensity” indicated in the rightmost column is a value of the level of expressed mRNA of each gene in control cells as divided by the average level of the expressions of the whole genes.

For `CCCCCCCCCCCCOS(=O)(=O)[O-].[Na+]` [(18), sodium lauryl sulfate], the “The level of expressed mRNA in the presence of chemical substance/absence: YOR267C” value (gene YOR267C) was 1.0, the “The level of expressed mRNA in the presence of chemical substance/absence: YOR325W” value (gene YOR325W) was 1.0 and the “level of expressed mRNA in the presence of chemical substance/in its absence” value (“level … of chemical substance/in its absence” for short) (gene YOR336W) was 1.0. For the same compound, the “level … of chemical substance/in its absence” value (gene YOR344C) was 1.3, the “level … of chemical substance/in its absence” value (gene YOR347C) was 1.3 and the “The level of expressed mRNA in the presence of chemical substance/absence: YPL005W” value (gene YPL005W) was 1.1. For the same compound, the “level … of chemical substance/in its absence” value (gene YPL017C) was 0.8, the “The level of expressed mRNA in the presence of chemical substance / the level in the absence of chemical substance, yeast gene YPL107W” value (gene YPL107W, DNA chip fluorescence ratio to control without chemical, 2 hours culture with chemical, growth-inhibiting non-lethal concentration) was 1.1 and the “The level of expressed mRNA in the presence of chemical substance / the level in the absence of chemical substance, yeast gene YPL138C” value (gene YPL138C, DNA chip fluorescence ratio to control without chemical, 2 hours culture with chemical, growth-inhibiting non-lethal concentration) was 1.1. The “The level of expressed mRNA in the presence of chemical substance/absence: YPL150W” value (gene YPL150W) was 1.1, the “The level of expressed mRNA in the presence of chemical substance/absence: YPL151C” value (gene YPL151C) was 1.0 and the “The level of expressed mRNA in the presence of chemical substance/absence: YPL152W” value (gene YPL152W) was 1.9. For the same compound, the “The level of expressed mRNA in the presence of chemical substance/absence: YPL168W” value (gene YPL168W) was 1.2, the “The level of expressed mRNA in the presence of chemical substance/absence: YPL180W” value (gene YPL180W) was 0.9 and the “The level of expressed mRNA in the presence of chemical substance/absence: YPL188W” value (gene YPL188W) was 0.9. For the same compound, the “The level of expressed mRNA in the presence of chemical substance/absence: YPL221W” value (gene YPL221W) was 1.2, the “The level of expressed mRNA in the presence of chemical substance/absence: YPL225W” value (gene YPL225W) was 1.7 and the “The level of expressed mRNA in the presence of chemical substance/absence: YPL249C” value (gene YPL249C) was 1.2. For the same compound, the “The level of expressed mRNA in the presence of chemical substance/absence: YPL260W” value (gene YPL260W) was 1.3, the “level … of chemical substance/in its absence” value (gene YPL265W) was 0.4 and the “level … of chemical substance/in its absence” value (gene YPR006C) was 2.1. The “level … of chemical substance/in its absence” value (gene YPR026W) was 1.3, the “The level of expressed mRNA in the presence of chemical substance/absence: YPR049C” value (gene YPR049C) was 1.1 and the “The level of expressed mRNA in the presence of chemical substance/absence: YPR061C” value (gene YPR061C) was 0.9. The “The level of expressed mRNA in the presence of chemical substance/absence: YPR093C” value (gene YPR093C) was 1.1, the “The level of expressed mRNA in the presence of chemical substance/absence: YPR146C” value (gene YPR146C) was 1.1 and the “The level of expressed mRNA in the presence of chemical substance/absence: YPR148C” value (gene YPR148C) was 2.0. The “The level of expressed mRNA in the presence of chemical substance/absence: YPR150W” value (gene YPR150W) was 1.0, the “The level of expressed mRNA in the presence of chemical substance/absence: YPR158W” value (gene YPR158W) was 0.7 and the “The level of expressed mRNA in the presence of chemical substance/absence: YPR169W” value (gene YPR169W) was 1.1. The “The level of expressed mRNA in the presence of chemical substance/absence: YPR172W” value (gene YPR172W) was 1.4, the “The level of expressed mRNA in the presence of chemical substance/absence: YPR174C” value (gene YPR174C) was 0.9 and the “The level of expressed mRNA in the presence of chemical substance/The level of expressed mRNA in the absence of chemical substance” value (yeast gene YAR010C) was 1.0. The “The level of expressed mRNA in the presence of chemical substance/The level of expressed mRNA in the absence of chemical substance” value (yeast gene YBL005W-A) was 1.0, the “The level of expressed mRNA in the presence of chemical substance/ (ratio to absence), gene YBL038W” value (yeast gene YBL038W, mitochondria-located protein genes, 2 h culture with chemical) was 1.9 and the “The level of expressed mRNA in the presence of chemical substance/The level of expressed mRNA in the absence of chemical substance” value (yeast gene YBL041W) was 2.0. The “The level of expressed mRNA in the presence of chemical substance/The level of expressed mRNA in the absence of chemical substance” value (yeast gene YBL043W) was 1.8, the “The level of expressed mRNA in the presence of chemical substance/The level of expressed mRNA in the absence of chemical substance” value (yeast gene YBL078C) was 2.8 and the “The level of expressed mRNA in the presence of chemical substance/ (ratio to absence of chemical substance)” value (yeast gene YBL093C) was 1.3. For the same compound, the “The level of expressed mRNA in the presence of chemical substance/ (in its absence), gene YBR036C” value (yeast gene YBR036C, ratio of DNA chip fluorescence intensity to that without chemical substance) was 1.8, the “The level of expressed mRNA in the presence of chemical substance/ (ratio to absence of chemical substance)” value (yeast gene YBR044C) was 1.3 and the “The level of expressed mRNA in the presence of chemical substance/ (ratio to absence), gene YBR122C” value (yeast gene YBR122C, mitochondria-located protein genes, 2 h culture with chemical) was 1.5. For the same compound, the “The level of expressed mRNA in the presence of chemical substance/The level of expressed mRNA in the absence of chemical substance” value (yeast gene YBR214W) was 1.2, the “The level of expressed mRNA in the presence of chemical substance/ (ratio to absence), gene YBR251W” value (yeast gene YBR251W, mitochondria-located protein genes, 2 h culture with chemical) was 1.4 and the “The level of expressed mRNA in the presence of chemical substance/ (in its absence), gene YBR298C” value (yeast gene YBR298C, ratio of DNA chip fluorescence intensity to that without chemical substance) was 0.8. The “The level of expressed mRNA in the presence of chemical substance/The level of expressed mRNA in the absence of chemical substance” value (yeast gene YCL020W) was 1.3, the “The level of expressed mRNA in the presence of chemical substance/The level of expressed mRNA in the absence of chemical substance” value (yeast gene YCL027W) was 0.8 and the “The level of expressed mRNA in the presence of chemical substance/The level of expressed mRNA in the absence of chemical substance” value (yeast gene YCR004C) was 3.5. For the same compound, the “The level of expressed mRNA in the presence of chemical substance/ (ratio to absence), gene YCR046C” value (yeast gene YCR046C, mitochondria-located protein genes, 2 h culture with chemical) was 1.0, the “The level of expressed mRNA in the presence of chemical substance/The level of expressed mRNA in the absence of chemical substance” value (yeast gene YCR071C) was 1.3 and the “The level of expressed mRNA in the presence of chemical substance/ (ratio to absence), gene YCR083W” value (yeast gene YCR083W, mitochondria-located protein genes, 2 h culture with chemical) was 1.3. The “The level of expressed mRNA in the presence of chemical substance/ (ratio to absence of chemical substance)” value (yeast gene YCR083W) was 1.3, the “The level of expressed mRNA in the presence of chemical substance/The level of expressed mRNA in the absence of chemical substance” value (yeast gene YCR088W) was 0.9 and the “The level of expressed mRNA in the presence of chemical substance/The level of expressed mRNA in the absence of chemical substance” value (yeast gene YDL008W) was 1.6. The “The level of expressed mRNA in the presence of chemical substance/ in its absence, gene YDL067C” value (yeast gene YDL067C, energy system protein genes, 2 h culture with the chemical, ratio to control without chemical) was 1.7, the “The level of expressed mRNA in the presence of chemical substance/ (ratio to absence), gene YDL067C” value (yeast gene YDL067C, mitochondria-located protein genes, 2 h culture with chemical) was 1.7 and the “The level of expressed mRNA in the presence of chemical substance/ in its absence, gene YDL078C” value (yeast gene YDL078C, energy system protein genes, 2 h culture with the chemical, ratio to control without chemical) was 2.0.
